Data from paper PMC10247784, “Physiological activation of human and mouse bitter taste receptors by bile acids” (Communications Biology, 2023).
“And” between values parts separate entries of the source, which are not always exact repeats. Identical values can stand only once.

Target: T1, human TAS2R1 (Homo sapiens, UniProt Q9NYW7)
T1 construct: expressed in transfected cells; host or cells: HEK293T-Gα16gust44
T1 sequence (Q9NYW7 1-299): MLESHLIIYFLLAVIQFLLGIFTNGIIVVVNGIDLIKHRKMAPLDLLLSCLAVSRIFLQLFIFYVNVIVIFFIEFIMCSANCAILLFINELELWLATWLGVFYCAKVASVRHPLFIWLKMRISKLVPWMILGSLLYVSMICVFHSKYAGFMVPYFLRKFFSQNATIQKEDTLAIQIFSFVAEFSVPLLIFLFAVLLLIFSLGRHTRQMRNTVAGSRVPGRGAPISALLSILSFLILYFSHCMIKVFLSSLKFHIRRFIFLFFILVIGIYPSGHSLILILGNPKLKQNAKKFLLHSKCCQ
Experiment: Calcium imaging assay (FLIPR), HEK293T-Gα16gust44 cells transfected with human TAS2R1
Format: cell-based
In short: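 Bile acids from DMSO stocks are applied to dye-loaded cells one day after transient receptor transfection, and calcium-dependent fluorescence is recorded. Maximum signal is standardized to basal and normalized to buffer-only wells, with empty-vector signal subtracted.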

In the case of C[C@H](CCC(=O)NCCS(=O)(=O)O)[C@H]1CC[C@H]2[C@@H]3CC[C@@H]4C[C@H](O)CC[C@]4(C)[C@H]3CC[C@]12C [Taurolithocholic Acid, taurolithocholic acid], the “Efficacy = maximal amplitude (ΔF/F)” value (TAS2R1, bile acids, mean) is reported as 0.1277, the “Efficacy (maximal amplitude ΔF/F), individual data points” value (TAS2R1, bile acids, single replicates, listed as TLCA) is reported as 0.1258 and 0.1227 and 0.1699 and 0.1221 and 0.09796 and the RLU (Time 0 s (second time grid)) is reported as 0 RLU. The RLU (Time 2 s) was -8.765 RLU, the RLU (Time 4 s) was 34.6882 RLU and the RLU (Time 6 s) was 11.8088 RLU. The RLU (Time 8 s) was 18.099 RLU, the RLU (Time 12 s) was 15.1496 RLU and the RLU (Time 14 s) was 13.1492 RLU. It also gave an RLU (Time 16 s) of 0.9458 RLU, an RLU (Time 18 s) of 9.703 RLU and an RLU (Time 18.781 s) of 5.165 RLU. For the same compound, the RLU (Time 20.781 s) was 27.2472 RLU, the RLU (Time 22.781 s) was 1.644 RLU and the RLU (Time 24.781 s) was -21.8293 RLU. It also gave an RLU (Time 26.781 s) of 33.0454 RLU, an RLU (Time 28.781 s) of 106.888 RLU and an RLU (Time 30.781 s) of 183.135 RLU. The RLU (Time 32.781 s) was 270.143 RLU, the RLU (Time 34.781 s) was 337.182 RLU and the RLU (Time 36.781 s) was 405.016 RLU. For the same compound, the RLU (Time 38.781 s) was 448.367 RLU, the RLU (Time 40.781 s) was 483.096 RLU and the RLU (Time 42.781 s) was 511.157 RLU. It also gave an RLU (Time 44.781 s) of 542.077 RLU, an RLU (Time 46.781 s) of 572.975 RLU and an RLU (Time 48.781 s) of 599.496 RLU. For the same compound, the RLU (Time 50.781 s) was 624.238 RLU, the RLU (Time 52.781 s) was 642.403 RLU and the RLU (Time 54.781 s) was 649.802 RLU. For the same compound, the RLU (Time 56.781 s) was 680.566 RLU, the RLU (Time 58.781 s) was 693.048 RLU and the RLU (Time 60.781 s) was 676.887 RLU. The RLU (Time 62.781 s) was 735.967 RLU, the RLU (Time 64.781 s) was 726.535 RLU and the RLU (Time 66.781 s) was 712 RLU. The RLU (Time 68.781 s) was 708.17 RLU, the RLU (Time 70.781 s) was 740.519 RLU and the RLU (Time 72.781 s) was 720.827 RLU. The RLU (Time 74.781 s) was 715.629 RLU, the RLU (Time 76.781 s) was 740.295 RLU and the RLU (Time 78.781 s) was 736.469 RLU. For the same compound, the RLU (Time 80.781 s) was 705.753 RLU, the RLU (Time 82.781 s) was 719.776 RLU and the RLU (Time 84.781 s) was 729.602 RLU. It also gave an RLU (Time 86.781 s) of 717.016 RLU, an RLU (Time 88.781 s) of 708.528 RLU and an RLU (Time 90.781 s) of 685.914 RLU. The RLU (Time 92.781 s) was 709.593 RLU, the RLU (Time 94.781 s) was 708.426 RLU and the RLU (Time 96.781 s) was 665.125 RLU. For the same compound, the RLU (Time 98.781 s) was 639.76 RLU, the RLU (Time 100.781 s) was 661.017 RLU and the RLU (Time 102.781 s) was 653.391 RLU. It also gave an RLU (Time 104.781 s) of 622.006 RLU, an RLU (Time 106.781 s) of 616.277 RLU and an RLU (Time 108.781 s) of 602.431 RLU. The RLU (Time 110.781 s) was 574.352 RLU, the RLU (Time 112.781 s) was 593.769 RLU and the RLU (Time 114.781 s) was 553.55 RLU. It also gave an RLU (Time 116.781 s) of 583.964 RLU, an RLU (Time 118.781 s) of 539.304 RLU and an RLU (Time 120.781 s) of 524.165 RLU. It also gave an RLU (Time 122.781 s) of 518.27 RLU, an RLU (Time 124.781 s) of 503.611 RLU and an RLU (Time 126.781 s) of 474.132 RLU. For the same compound, the RLU (Time 128.781 s) was 435.021 RLU, the RLU (Time 130.781 s) was 439.84 RLU and the RLU (Time 132.781 s) was 420.045 RLU. It also gave an RLU (Time 134.781 s) of 393.577 RLU, an RLU (Time 136.781 s) of 395.556 RLU and an RLU (Time 137.547 s) of 402.14 RLU. For the same compound, the RLU (Time 143.547 s) was 371.698 RLU, the RLU (Time 149.547 s) was 331.65 RLU and the RLU (Time 155.547 s) was 280.988 RLU. The RLU (Time 161.547 s) was 237.537 RLU, the RLU (Time 167.547 s) was 191.55 RLU and the RLU (Time 173.547 s) was 185.568 RLU. It also gave an RLU (Time 179.547 s) of 137.711 RLU, an RLU (Time 185.547 s) of 105.562 RLU and an RLU (Time 191.547 s) of 24.299 RLU. The RLU (Time 197.547 s) was 1.672 RLU, the RLU (Time 203.547 s) was -7.55 RLU and the RLU (Time 209.547 s) was -39.8614 RLU. For the same compound, the RLU (Time 215.547 s) was -81.387 RLU, the RLU (Time 221.547 s) was -74.4232 RLU and the RLU (Time 227.547 s) was -79.2952 RLU. The RLU (Time 233.547 s) was -69.562 RLU, the RLU (Time 239.547 s) was -81.6561 RLU and the RLU (Time 245.547 s) was -72.3962 RLU. The RLU (Time 293.547 s) was -154.558 RLU, the RLU (Time 299.547 s) was -170.989 RLU and the RLU (calcium trace, sheet TAS2R1, Time 305.547 s) was -184.97 RLU. The RLU (calcium trace, sheet TAS2R1, Time 311.547 s) was -208.123 RLU, the RLU (calcium trace, sheet TAS2R1, Time 317.547 s) was -201.311 RLU and the RLU (calcium trace, sheet TAS2R1, Time 323.547 s) was -236.998 RLU. The RLU (calcium trace, sheet TAS2R1, Time 329.547 s) was -230.646 RLU, the RLU (calcium trace, sheet TAS2R1, Time 335.547 s) was -241.48 RLU and the RLU (calcium trace, sheet TAS2R1, Time 341.547 s) was -222.174 RLU. It also gave an RLU (calcium trace, sheet TAS2R1, Time 347.547 s) of -215.316 RLU, an RLU (calcium trace, sheet TAS2R1, Time 353.547 s) of -228.211 RLU and an RLU (calcium trace, sheet TAS2R1, Time 359.547 s) of -233.286 RLU. The EC50 (calculated where receptor saturation was reached) was 1900 nM and the “Activation threshold concentration TAS2R1” value (lowest concentration with significantly increased fluorescence vs empty vector (p < 0.01)) was 0.3 µM and 0.30 µM.
